For experiment [1], the target named is T1, Potassium voltage-gated channel subfamily A member 3 (Homo sapiens, UniProt P22001). As to the kind of experiment: cell-based. Also noted: species or system Blood.
Experiment [2] concerns the target T1, Potassium voltage-gated channel subfamily A member 3. In kind it is cell-based, CHO-K1.
For experiment [3] the target is unchanged. Also noted: species or system Blood.

Molecules are shown by their SMILES.

T1 sequence (P22001 whole entry): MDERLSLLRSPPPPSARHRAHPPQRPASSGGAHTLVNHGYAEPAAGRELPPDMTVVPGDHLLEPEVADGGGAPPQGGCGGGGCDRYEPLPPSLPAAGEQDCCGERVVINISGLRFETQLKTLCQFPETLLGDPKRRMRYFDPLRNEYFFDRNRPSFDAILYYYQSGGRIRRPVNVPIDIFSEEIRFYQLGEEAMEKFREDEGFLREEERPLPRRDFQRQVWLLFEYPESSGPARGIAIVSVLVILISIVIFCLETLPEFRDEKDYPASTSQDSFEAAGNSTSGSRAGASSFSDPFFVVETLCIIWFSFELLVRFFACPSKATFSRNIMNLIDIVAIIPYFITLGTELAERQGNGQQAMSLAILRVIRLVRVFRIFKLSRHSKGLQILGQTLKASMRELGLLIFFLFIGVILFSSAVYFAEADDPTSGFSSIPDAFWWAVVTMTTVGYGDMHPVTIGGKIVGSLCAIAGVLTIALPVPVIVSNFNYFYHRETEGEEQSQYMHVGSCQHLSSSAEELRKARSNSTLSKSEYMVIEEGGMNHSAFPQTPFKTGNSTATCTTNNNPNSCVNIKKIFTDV

The IC50 is the concentration that inhibits the measured activity by half. `CC[C@H](C)[C@@H]1NC(=O)[C@@H](NC(=O)[C@H](CO)NC(=O)[C@H](C)N)CSSC[C@@H](C(=O)O)NC(=O)[C@H]([C@@H](C)O)NC(=O)CNC(=O)[C@@H]2CSSC[C@@H]3NC(=O)[C@H](CCC(N)=O)NC(=O)[C@H](Cc4ccccc4)NC(=O)[C@H](C)NC(=O)[C@H]([C@@H](C)O)NC(=O)[C@H](CSSC[C@H](NC(=O)[C@H](Cc4ccccc4)NC(=O)[C@H](CO)NC(=O)[C@H](CC(C)C)NC(=O)[C@H](CCCNC(=N)N)NC(=O)[C@H](Cc4ccc(O)cc4)NC(=O)[C@H](CCCCN)NC(=O)[C@H](CCSC)NC(=O)[C@H](CO)NC(=O)[C@H](Cc4cnc[nH]4)NC(=O)[C@H](CCCCN)NC3=O)C(=O)N[C@@H](CCCNC(=N)N)C(=O)N[C@@H](CCCCN)C(=O)N[C@@H]([C@@H](C)O)C(=O)N2)NC(=O)[C@H](CCCNC(=N)N)NC(=O)[C@H](CO)NC(=O)[C@H](CCCCN)NC(=O)[C@@H]2CCCN2C(=O)[C@H]([C@@H](C)CC)NC(=O)[C@H]([C@@H](C)O)NC(=O)[C@H](CC(=O)O)NC1=O`: the IC50 worked out at 0.061 nM in experiment [1] and 0.166 nM in experiment [2].
With `CC[C@H](C)[C@@H]1NC(=O)[C@@H](NC(=O)[C@H](CO)NC(=O)[C@@H](N)CCCNC(=N)N)CSSC[C@@H](C(=O)O)NC(=O)[C@H]([C@@H](C)O)NC(=O)CNC(=O)[C@@H]2CSSC[C@@H]3NC(=O)[C@H](CCC(N)=O)NC(=O)[C@H](Cc4ccccc4)NC(=O)[C@H](C)NC(=O)[C@H]([C@@H](C)O)NC(=O)[C@H](CSSC[C@H](NC(=O)[C@H](Cc4ccccc4)NC(=O)[C@H](CO)NC(=O)[C@H](CC(C)C)NC(=O)[C@H](CCCNC(=N)N)NC(=O)[C@H](Cc4ccc(O)cc4)NC(=O)[C@H](CCCCN)NC(=O)[C@H](CCSC)NC(=O)[C@H](CO)NC(=O)[C@H](Cc4cnc[nH]4)NC(=O)[C@H](CCCCN)NC3=O)C(=O)N[C@@H](CCCNC(=N)N)C(=O)N[C@@H](CCCNC(=N)N)C(=O)N[C@@H]([C@@H](C)O)C(=O)N2)NC(=O)[C@H](CCCNC(=N)N)NC(=O)[C@H](CO)NC(=O)[C@H](CCCCN)NC(=O)[C@@H]2CCCN2C(=O)[C@H]([C@@H](C)CC)NC(=O)[C@H]([C@@H](C)O)NC(=O)[C@H](CC(=O)O)NC1=O`, the half-inhibitory concentration (IC50) in experiment [3] stood at 0.058 nM; in experiment [2] it was 0.038 nM.
Consider `CC[C@H](C)[C@@H]1NC(=O)[C@@H](NC(=O)[C@H](CO)NC(=O)[C@@H](N)CCCNC(=N)N)CSSC[C@@H](C(=O)O)NC(=O)[C@H]([C@@H](C)O)NC(=O)CNC(=O)[C@@H]2CSSC[C@@H]3NC(=O)[C@H](CCC(N)=O)NC(=O)[C@H](Cc4ccccc4)NC(=O)[C@H](C)NC(=O)[C@H]([C@@H](C)O)NC(=O)[C@H](CSSC[C@H](NC(=O)[C@H](Cc4ccccc4)NC(=O)[C@H](CO)NC(=O)[C@H](CC(C)C)NC(=O)[C@H](CCCNC(=N)N)NC(=O)[C@H](Cc4ccc(O)cc4)NC(=O)[C@H](CCCCN)NC(=O)[C@H](CCSC)NC(=O)[C@H](CO)NC(=O)[C@H](Cc4cnc[nH]4)NC(=O)[C@H](CCCCN)NC3=O)C(=O)N[C@@H](CCCNC(=N)N)C(=O)N[C@@H](CCCCN)C(=O)N[C@@H]([C@@H](C)O)C(=O)N2)NC(=O)[C@H](CCCNC(=N)N)NC(=O)[C@H](CO)NC(=O)[C@H](CCCCN)NC(=O)[C@@H]2CCCN2C(=O)[C@H](CCCCN)NC(=O)[C@H]([C@@H](C)O)NC(=O)[C@H](CC(=O)O)NC1=O`, for which the figures for the IC50 in experiment [1], in experiment [3] and in experiment [2] were 4.67 nM, 13.5 nM and 0.561 nM, respectively.
In the same order, the values of `CC[C@H](C)[C@@H]1NC(=O)[C@@H](NC(=O)[C@H](CO)NC(=O)[C@@H](N)CCCNC(=N)N)CSSC[C@@H](C(=O)O)NC(=O)[C@H]([C@@H](C)O)NC(=O)CNC(=O)[C@@H]2CSSC[C@@H]3NC(=O)[C@H](CCC(N)=O)NC(=O)[C@H](Cc4ccccc4)NC(=O)[C@H](C)NC(=O)[C@H]([C@@H](C)O)NC(=O)[C@H](CSSC[C@H](NC(=O)[C@H](Cc4ccccc4)NC(=O)[C@H](CO)NC(=O)[C@H](CC(C)C)NC(=O)[C@H](CCCNC(=N)N)NC(=O)[C@H](Cc4ccc(O)cc4)NC(=O)[C@H](CCCCN)NC(=O)[C@H](CCSC)NC(=O)[C@H](CO)NC(=O)[C@H](Cc4cnc[nH]4)NC(=O)[C@H](CCCCN)NC3=O)C(=O)N[C@@H](CCCNC(=N)N)C(=O)N[C@@H](CCCCN)C(=O)N[C@@H]([C@@H](C)O)C(=O)N2)NC(=O)[C@H](CCCNC(=N)N)NC(=O)[C@H](CCCCN)NC(=O)[C@H](CCCCN)NC(=O)[C@@H]2CCCN2C(=O)[C@H]([C@@H](C)CC)NC(=O)[C@H]([C@@H](C)O)NC(=O)[C@H](CC(=O)O)NC1=O` are 0.052 nM, 0.082 nM and 0.184 nM.
In the same order, the values of `CC[C@H](C)[C@@H]1NC(=O)[C@@H](NC(=O)[C@H](CO)NC(=O)[C@@H](N)CCCNC(=N)N)CSSC[C@@H](C(=O)O)NC(=O)[C@H]([C@@H](C)O)NC(=O)CNC(=O)[C@@H]2CSSC[C@@H]3NC(=O)[C@H](CCC(N)=O)NC(=O)[C@H](Cc4ccccc4)NC(=O)[C@H](C)NC(=O)[C@H](CCCCN)NC(=O)[C@H](CSSC[C@H](NC(=O)[C@H](Cc4ccccc4)NC(=O)[C@H](CO)NC(=O)[C@H](CC(C)C)NC(=O)[C@H](CCCNC(=N)N)NC(=O)[C@H](Cc4ccc(O)cc4)NC(=O)[C@H](CCCCN)NC(=O)[C@H](CCSC)NC(=O)[C@H](CO)NC(=O)[C@H](Cc4cnc[nH]4)NC(=O)[C@H](CCCCN)NC3=O)C(=O)N[C@@H](CCCNC(=N)N)C(=O)N[C@@H](CCCCN)C(=O)N[C@@H]([C@@H](C)O)C(=O)N2)NC(=O)[C@H](CCCNC(=N)N)NC(=O)[C@H](CO)NC(=O)[C@H](CCCCN)NC(=O)[C@@H]2CCCN2C(=O)[C@H]([C@@H](C)CC)NC(=O)[C@H]([C@@H](C)O)NC(=O)[C@H](CC(=O)O)NC1=O` are 0.257 nM, 0.363 nM and 0.154 nM.
Consider `CC[C@H](C)[C@@H]1NC(=O)[C@@H](NC(=O)[C@H](CO)NC(=O)[C@@H](N)CCCNC(=N)N)CSSC[C@@H](C(=O)O)NC(=O)[C@H]([C@@H](C)O)NC(=O)CNC(=O)[C@@H]2CSSC[C@@H]3NC(=O)[C@H](CCC(N)=O)NC(=O)[C@H](Cc4ccccc4)NC(=O)[C@H](C)NC(=O)[C@H]([C@@H](C)O)NC(=O)[C@H](CSSC[C@H](NC(=O)[C@H](Cc4ccccc4)NC(=O)[C@H](CO)NC(=O)[C@H](CC(C)C)NC(=O)[C@H](CCCNC(=N)N)NC(=O)[C@H](Cc4ccc(O)cc4)NC(=O)[C@H](CCCCN)NC(=O)[C@H](CCSC)NC(=O)[C@H](CO)NC(=O)[C@H](Cc4cnc[nH]4)NC(=O)[C@H](CCCCN)NC3=O)C(=O)N[C@@H](CCCNC(=N)N)C(=O)N[C@@H](CCCCN)C(=O)N[C@@H]([C@@H](C)O)C(=O)N2)NC(=O)[C@H](CCCNC(=N)N)NC(=O)[C@H](Cc2cccc3ccccc23)NC(=O)[C@H](CCCCN)NC(=O)[C@@H]2CCCN2C(=O)[C@H]([C@@H](C)CC)NC(=O)[C@H]([C@@H](C)O)NC(=O)[C@H](CC(=O)O)NC1=O`, for which the IC50 is 0.255 nM in experiment [3] and 0.216 nM in experiment [2].

For the origin of these results see ChEMBL document CHEMBL3608278 (J Med Chem, 2015).
